The values that follow come from patent US20250122181A1, “BENZIMIDAZOLES AS MODULATORS OF IL-17” (Janssen Pharmaceutica NV, priority 2021, published 2025).

The test system of experiment [1] is IL-17A-induced G-CSF production in human normal keratinocyte (NHK). As to the kind of experiment: NHK Assay: IL-17A-induced G-CSF production in human normal keratinocyte. As to conditions: 24 h, IL-17A 5 ng/mL, simple average if tested more than once. Type of experiment: cell-based. The method, boiled down:
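Stimulus rhIL-17A 5 ng/mL final, premixed 1 h rt with compound; adult NHK, 5% FBS, 0.2% DMSO. Viability by CellTiter-Glo vs DMSO.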

Experiment [2] concerns the target T1, IL-17A(FLAG-Tagged): IL-17RA(His-Tagged) (Homo sapiens, UniProt Q16552, K93Q). As to the kind of experiment: IL-17A(FLAG-Tagged): IL-17RA(His-Tagged) Binding Disruption Eu-HTRF Assay, Protocol 2. As to conditions: Protocol 2, FLAG tagged IL-17A 1 nM; simple average if tested more than once. From the text: An antibody directed against the FLAG tag of IL-17A (SEQ ID NO: 1) is labeled with the HTRF donor chromophore (Europium-cryptate). IL-17A is present as a dimer that is “locked into” this quaternary structure due to the formation of loop-spanning […] disulfide bridges. The construct of IL-17RA used in the assay excludes the […] portion of the receptor and is fused to a C-terminal 10×His tag (SEQ ID NO:2). An antibody directed against the His tag of the IL-17RA chimera is labeled with the HTRF acceptor chromophore (“D2”). The fluorescence-resonance energy transfer (FRET) depends on the vicinity of the donor chromophore to the acceptor, and interruption of the binding between the IL-17A and IL-17RA causes the reduction/loss of FRET. Therefore, this assay allows to evaluate the compound effect on the binding IL-17A and IL-17RA by monitoring the fluorescence intensity of donor vs acceptor. The assay was run using either Protocol 1 or Protocol 2 as described below.
Protocol 2. 40 nl of 2-fold serial diluted compound solution for total 22 dilution points is added into each well of a 1536-well, white, low-volume, non-binding plate (Greiner #782904), then 2 μl of FLAG tagged IL-17A at 2× final concentration (1 nM) in solution of PBS+0.01% Triton-X100 is added to each well. The assay plate is briefly centrifuged then incubated for 1 h at rt. A mixed solution is prepared containing 2×5 nM 10HIS×IL-17RA, 2×2.5 nM Eu-anti-FLAG (CISBIO), 2×5 nM D2-anti-HIS (CISBIO) in PBS+0.01% Triton-X100+200 mM Potassium Fluoride (Sigma 60238) and 2 μl of mix is added to each well of the assay plate. The plate is briefly centrifuged then incubated for 2 h at rt. The HTRF intensities at the wavelength of donor (615 nm) and acceptor (665 nm) are measured using BMG Pherastar. The ratio between intensities at two wavelengths is calculated and plotted against the compound concentration and the data is fitted to a one-site competition model to yield IC50 of the compound.
(TR-FRET usually uses a lanthanide donor and a delayed reading to cut background.)

Experiment [3] has as its target T1, IL-17A(FLAG-Tagged): IL-17RA(His-Tagged). As to the kind of experiment: IL-17A(FLAG-Tagged): IL-17RA(His-Tagged) Binding Disruption Eu-HTRF Assay, Protocol 1. As to conditions: Protocol 1, FLAG tagged IL-17A 2.5 nM; simple average if tested more than once. The method, boiled down: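 IC50 came from a one-site competition fit of the acceptor/donor (665/620 nm) HTRF ratio. His-tagged IL-17RA, Eu-anti-FLAG and D2-anti-His were added after a 1 h rt compound preincubation with FLAG-tagged IL-17A dimer in PBS/0.01% Triton X-100, followed by 2 h at rt before reading.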

What is called pIC50 is −log10 of the IC50, conventionally taken in molar units. Lower therefore signals a large IC50.

Molecules are shown by their SMILES. pIC50: −log10 of the molar value.

T1 sequence (Q16552 with tags, fused parts or gaps K93Q): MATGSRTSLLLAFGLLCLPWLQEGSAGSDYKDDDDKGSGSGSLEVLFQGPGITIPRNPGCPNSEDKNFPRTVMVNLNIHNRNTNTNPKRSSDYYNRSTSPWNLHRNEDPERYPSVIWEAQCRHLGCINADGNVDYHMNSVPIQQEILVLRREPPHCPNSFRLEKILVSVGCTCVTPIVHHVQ

Consider `COC[C@H](c1ccc2nc(C(NC(=O)c3nonc3C3CC3)[C@@H](C)O[C@H](C)C(F)(F)F)[nH]c2c1F)N1C[C@@H](C(F)(F)F)NC1=O` (single isomer, unassigned) [Example 94, 4-Cyclopropyl-N-((1S*,2R)-1-(7-fluoro-6-((S)-2-methoxy-1-((S)-2-oxo-4-(trifluoromethyl)imidazolidin-1-yl)ethyl)-1H-benzo[d]imidazol-2-yl)-2-(((R)-1,1,1-trifluoropropan-2-yl)oxy)propyl)-1,2,5-oxadiazole-3-carboxamide], for which the pIC50 in experiment [1] (Homo sapiens, Keratinocyte) was above 7.30; in experiment [2] it was above 7.30.

Take `CC(C)n1ncc(F)c1C(=O)N[C@H](c1nc2cc([C@@H](COC3CC3)N3CC(F)(F)CNC3=O)ccc2[nH]1)[C@@H](C)OC1CC1` [Example 72, N-((1R,2R)-2-Cyclopropoxy-1-(5-((S)-2-cyclopropoxy-1-(5,5-difluoro-2-oxotetrahydropyrimidin-1(2H)-yl)ethyl)-1H-benzo[d]imidazol-2-yl)propyl)-4-fluoro-1-isopropyl-1H-pyrazole-5-carboxamide]: the pIC50 in experiment [1] (Homo sapiens, Keratinocyte) is 7.00 to 7.30; in experiment [2], above 7.30.

In the case of `Cc1nonc1C(=O)N[C@H](c1nc2cc([C@@H](COC3CC3)N3C[C@@H](C(F)(F)F)NC3=O)ccc2[nH]1)[C@@H](C)OC1CC1` [Example 70, N-((1R,2R)-2-Cyclopropoxy-1-(5-((S)-2-cyclopropoxy-1-((S)-2-oxo-4-(trifluoromethyl)imidazolidin-1-yl)ethyl)-1H-benzo[d]imidazol-2-yl)propyl)-4-methyl-1,2,5-oxadiazole-3-carboxamide], the pIC50 is above 7.30 in experiment [1] (Homo sapiens, Keratinocyte) and above 7.30 in experiment [2].

Regarding `COC[C@H](c1ccc2nc(C(NC(=O)c3nonc3C3CC3)[C@@H](C)O[C@H](C)C(F)(F)F)[nH]c2c1F)N1C[C@@H](C(F)(F)F)NC1=O` (single isomer, unassigned) [Example 95, 4-Cyclopropyl-N-((1R*,2R)-1-(7-fluoro-6-((S)-2-methoxy-1-((S)-2-oxo-4-(trifluoromethyl)imidazolidin-1-yl)ethyl)-1H-benzo[d]imidazol-2-yl)-2-(((R)-1,1,1-trifluoropropan-2-yl)oxy)propyl)-1,2,5-oxadiazole-3-carboxamide], the pIC50 in experiment [1] and in experiment [2] was above 7.30 in each case.

For `COC[C@H](c1ccc2nc(C(NC(=O)c3nonc3C)[C@@H](C)O[C@H](C)C(F)(F)F)[nH]c2c1F)N1C[C@@H](C(F)(F)F)NC1=O` (single isomer, unassigned) [Example 96, N-((1S*,2R)-1-(7-Fluoro-6-((S)-2-methoxy-1-((S)-2-oxo-4-(trifluoromethyl)imidazolidin-1-yl)ethyl)-1H-benzo[d]imidazol-2-yl)-2-(((R)-1,1,1-trifluoropropan-2-yl)oxy)propyl)-4-methyl-1,2,5-oxadiazole-3-carboxamide], the pIC50 in experiment [1] (Homo sapiens, Keratinocyte) is above 7.30; in experiment [2], 7.00 to 7.30.

`COC[C@H](c1ccc2nc(C(NC(=O)c3nonc3C)[C@@H](C)O[C@H](C)C(F)(F)F)[nH]c2c1F)N1C[C@@H](C(F)(F)F)NC1=O` (single isomer, unassigned) [Example 97, N-((1R*,2R)-1-(7-Fluoro-6-((S)-2-methoxy-1-((S)-2-oxo-4-(trifluoromethyl)imidazolidin-1-yl)ethyl)-1H-benzo[d]imidazol-2-yl)-2-(((R)-1,1,1-trifluoropropan-2-yl)oxy)propyl)-4-methyl-1,2,5-oxadiazole-3-carboxamide]: the pIC50 in experiment [1] and in experiment [2] was above 7.30 in each case.

For the compound `[2H]C1([2H])[C@H](C(F)(F)F)NC(=O)N1[C@@H](c1ccc2[nH]c([C@@H](NC(=O)c3nonc3C)[C@@H](C)O[C@H](C)C(F)(F)F)nc2c1)C1CC1` (relative stereo) [Example 8, N-((1R*,2R)-1-(5-((R)-Cyclopropyl((R*)-2-oxo-4-(trifluoromethyl)imidazolidin-1-yl-5,5-d2)methyl)-1H-benzo[d]imidazol-2-yl)-2-(((R)-1,1,1-trifluoropropan-2-yl)oxy)propyl)-4-methyl-1,2,5-oxadiazole-3-carboxamide], the pIC50 was 7.00 to 7.30 in experiment [3] and below 7.00 in experiment [1] (Homo sapiens, Keratinocyte).

Turning to `Cc1nonc1C(=O)N[C@@H](COC(C)(C)C(F)(F)F)c1nc2cc([C@@H](C3CC3)N3CC(F)(F)CNC3=O)ccc2[nH]1` [Example 23, N—((R)-1-(5-((R)-Cyclopropyl(5,5-difluoro-2-oxotetrahydropyrimidin-1(2H)-yl)methyl)-1H-benzo[d]imidazol-2-yl)-2-((1,1,1-trifluoro-2-methylpropan-2-yl)oxy)ethyl)-4-methyl-1,2,5-oxadiazole-3-carboxamide], the pIC50 in experiment [3] is above 7.30; in experiment [1] (Homo sapiens, Keratinocyte), above 7.30.

Consider `CC(C)n1ncnc1C(=O)N[C@@H](COC(C)(C)C(F)(F)F)c1nc2cc([C@@H](C3CC3)N3C[C@@H](C(F)(F)F)NC3=O)ccc2[nH]1` [Example 5, N—((R)-1-(5-((R)-Cyclopropyl((S)-2-oxo-4-(trifluoromethyl)imidazolidin-1-yl)methyl)-1H-benzo[d]imidazol-2-yl)-2-((1,1,1-trifluoro-2-methylpropan-2-yl)oxy)ethyl)-1-isopropyl-1H-1,2,4-triazole-5-carboxamide], for which the pIC50 in experiment [3] is above 7.30; in experiment [1] (Homo sapiens, Keratinocyte), above 7.30.

For the compound `Cc1nonc1C(=O)N[C@@H](COC(C)(C)C(F)(F)F)c1nc2cc([C@@H](C3CC3)N3C[C@@H](C(F)(F)F)NC3=O)ccc2[nH]1` [Example 2, N—((R)-1-(5-((R)-Cyclopropyl((S)-2-oxo-4-(trifluoromethyl)imidazolidin-1-yl)methyl)-1H-benzo[d]imidazol-2-yl)-2-((1,1,1-trifluoro-2-methylpropan-2-yl)oxy)ethyl)-4-methyl-1,2,5-oxadiazole-3-carboxamide], the pIC50 in experiment [3] is above 7.30; in experiment [1] (Homo sapiens, Keratinocyte) it was above 7.30.

Turning to `CC(C)(OC[C@H](NC(=O)c1nonc1C1CC1)c1nc2ccc(CN3CC(F)(F)CNC3=O)cc2[nH]1)C(F)(F)F` [Example 30, (R)-4-Cyclopropyl-N-(1-(6-((5,5-difluoro-2-oxotetrahydropyrimidin-1(2H)-yl)methyl)-1H-benzo[d]imidazol-2-yl)-2-((1,1,1-trifluoro-2-methylpropan-2-yl)oxy)ethyl)-1,2,5-oxadiazole-3-carboxamide], the pIC50 was above 7.30 in experiment [3] and above 7.30 in experiment [1] (Homo sapiens, Keratinocyte).

Turning to `COC[C@H](c1ccc2[nH]c([C@@H](NC(=O)c3nonc3C)[C@@H](C)O[C@@H](C)C(F)(F)F)nc2c1)N1CC(F)(F)CNC1=O` [Example 50, N-((1R,2R)-1-(5-((S)-1-(5,5-Difluoro-2-oxotetrahydropyrimidin-1(2H)-yl)-2-methoxyethyl)-1H-benzo[d]imidazol-2-yl)-2-(((S)-1,1,1-trifluoropropan-2-yl)oxy)propyl)-4-methyl-1,2,5-oxadiazole-3-carboxamide], the pIC50 in experiment [3] is above 7.30; in experiment [1] (Homo sapiens, Keratinocyte), above 7.30.

On to `[2H]C1([2H])[C@@H](C(F)(F)F)NC(=O)N1[C@@H](c1ccc2[nH]c([C@@H](NC(=O)c3nonc3C)[C@@H](C)O[C@H](C)C(F)(F)F)nc2c1)C1CC1` (relative stereo) [Example 9, N-((1R*,2R)-1-(5-((R)-Cyclopropyl((S*)-2-oxo-4-(trifluoromethyl)imidazolidin-1-yl-5,5-d2)methyl)-1H-benzo[d]imidazol-2-yl)-2-(((R)-1,1,1-trifluoropropan-2-yl)oxy)propyl)-4-methyl-1,2,5-oxadiazole-3-carboxamide], for which the pIC50 in experiment [3] was above 7.30; in experiment [1] (Homo sapiens, Keratinocyte), above 7.30.
